Assay: xn = mol fraction of the nth substance listed
Settings: Liquid; for viscosity: Capillary tube (Ostwald / Ubbelohde) method; for mass density: Vibrating tube method

CCO [ethanol] + O
Settings	mass density, 10000 kPa [kg/m3]	mass density, 20000 kPa [kg/m3]	mass density, 30000 kPa [kg/m3]	mass density, 40000 kPa [kg/m3]	viscosity, 10000 kPa [mPa·s]	viscosity, 20000 kPa [mPa·s]	viscosity, 30000 kPa [mPa·s]	viscosity, 40000 kPa [mPa·s]
350.7 K, x1 = 0.1	933.68	936.77	941.46	945.15	0.537	0.546	0.556	0.578
350.7 K, x1 = 0.2	895.78	900.9	905.65	911.39	0.625	0.638	0.651	0.681
350.7 K, x1 = 0.3	863.89	870.14	876.58	881.9	0.632	0.661	0.684	0.726
350.7 K, x1 = 0.4	838.33	845.24	852.53	859.05	0.64	0.669	0.691	0.737
350.7 K, x1 = 0.6	798.55	807.87	815.61	822.93	0.595	0.624	0.654	0.695
350.7 K, x1 = 0.8	768.37	778.79	787.77	795.87	0.531	0.57	0.601	0.643
350.7 K, x1 = 1	745.63	757.47	766.87	775.75	0.461	0.518	0.555	0.59
373.2 K, x1 = 0.1	913.36	918.8	924.46	928.74	0.401	0.397	0.403	0.421
373.2 K, x1 = 0.2	874.72	880.64	886.74	892.24	0.448	0.449	0.459	0.483
373.2 K, x1 = 0.3	842.36	849.56	856.1	862.39	0.461	0.473	0.484	0.515
373.2 K, x1 = 0.4	815.79	823.45	830.81	837.9	0.462	0.477	0.489	0.509
373.2 K, x1 = 0.6	776.56	785.48	794.06	801.93	0.434	0.451	0.461	0.489
373.2 K, x1 = 0.8	747.1	757.25	767.44	776.49	0.381	0.406	0.439	0.456
373.2 K, x1 = 1	726.87	738.25	750.02	757.87	0.364	0.382	0.404	0.443
476.2 K, x1 = 0.1	802.54	810.76	819.25	827.58	0.148	0.152	0.159	0.164
476.2 K, x1 = 0.2	752.52	764.89	776.24	786.01	0.151	0.157	0.164	0.168
476.2 K, x1 = 0.3	713.85	728.6	743.62	754.08	0.144	0.153	0.164	0.172
476.2 K, x1 = 0.4	682.37	700.31	717.25	730.44	0.139	0.148	0.159	0.167
476.2 K, x1 = 0.6	636.05	658.71	679.71	694.35	0.125	0.138	0.15	0.161
476.2 K, x1 = 0.8	605.36	633.16	656.43	671.76	0.113	0.129	0.144	0.155
476.2 K, x1 = 1	582.85	613.37	638.82	656.07	0.107	0.123	0.138	0.151

Source: the NIST ThermoML archive (doi:10.1016/j.fluid.2015.07.012)
